Measurements reported in ChEMBL document CHEMBL1152321, “Recent advances in the chemistry and biology of new generation taxoids” (J Nat Prod, 2009).

Experiments:
[1] = Cytotoxicity against P-glycoprotein deficient wild type human LCC-6 cells after 72 hrs; type: functional, cell-based; settings: LCC-6, 72 h
MCF7 [2] = assay: Resistance factor, ratio of IC50 for P-glycoprotein deficient wild type human MCF7 cells to IC50 for multidrug-resistant human NCI/ADR cells; type: functional
[3] = Resistance factor, ratio of IC50 for human LCC-6 cells expressing P-glycoprotein to IC50 for P-glycoprotein deficient wild type human LCC-6 cells; type: functional; parameters: reference not given here
NCI-H460 = assay: Cytotoxicity against human H460 cells after 72 hrs; type: functional, cell-based; settings: NCI-H460, 72 h
[4] = Cytotoxicity against human LCC-6 cells expressing P-glycoprotein after 72 hrs; type: functional, cell-based; settings: LCC-6, 72 h
MCF7 [5] = assay: Cytotoxicity against human MCF7 cells expressing P-glycoprotein after 72 hrs; type: functional, cell-based; settings: MCF7, 72 h
MCF7 [6] = assay: Resistance factor, ratio of IC50 for human MCF7 cells expressing P-glycoprotein to IC50 for P-glycoprotein deficient wild type human MCF7 cells; type: functional
MCF7 [7] = assay: Cytotoxicity against P-glycoprotein deficient wild type human MCF7 cells after 72 hrs; type: functional, cell-based; settings: MCF7, 72 h
HT-29 = assay: Cytotoxicity against human HT-29 cells after 72 hrs; type: functional, cell-based; settings: HT-29, 72 h

CCC(=O)O[C@H]1C(=O)[C@@]2(C)[C@H]([C@H](OC(=O)c3ccccc3)[C@]3(O)C[C@H](OC(=O)[C@H](O)[C@H](CC(C)C)NC(=O)C4CCCC4)C(C)=C1C3(C)C)[C@]1(OC(C)=O)CO[C@@H]1C[C@@H]2O
IC50 [1]: 6.3 nM
Ratio (MCF7 [2]): 12
Ratio [3]: 10

CCC(=O)O[C@H]1C(=O)[C@@]2(C)[C@H]([C@H](OC(=O)c3ccccc3)[C@]3(O)C[C@H](OC(=O)[C@H](O)[C@H](C=C(C)C)NC(=O)OC4CCCCC4)C(C)=C1C3(C)C)[C@]1(OC(C)=O)CO[C@@H]1C[C@@H]2O
IC50 [1]: 1.2 nM
Ratio (MCF7 [2]): 6.4
Ratio [3]: 13

COc1ccc(CC(=O)O[C@H]2C(=O)[C@@]3(C)[C@H]([C@H](OC(=O)c4cccc(OC)c4)[C@]4(O)C[C@H](OC(=O)[C@H](O)[C@H](C=C(C)C)NC(=O)OC(C)(C)C)C(C)=C2C4(C)C)[C@]2(OC(C)=O)CO[C@@H]2C[C@@H]3O)cc1
IC50 [1]: 0.4 nM
Ratio (MCF7 [2]): 3
Ratio [3]: 1

CCC(=O)O[C@H]1C(=O)[C@@]2(C)[C@H]([C@H](OC(=O)c3ccccc3)[C@]3(O)C[C@H](OC(=O)[C@H](O)[C@H](C=C(C)C)NC(=O)C4CCCCC4)C(C)=C1C3(C)C)[C@]1(OC(C)=O)CO[C@@H]1C[C@@H]2O
IC50 [1]: 1.3 nM
Ratio (MCF7 [2]): 18
Ratio [3]: 10

CCC(=O)O[C@H]1C(=O)[C@@]2(C)[C@H]([C@H](OC(=O)c3cccc(OC)c3)[C@]3(O)C[C@H](OC(=O)[C@H](O)[C@H](CC(C)C)NC(=O)C4CCCCC4)C(C)=C1C3(C)C)[C@]1(OC(C)=O)CO[C@@H]1C[C@@H]2O
IC50 [1]: 1 nM
Ratio (MCF7 [2]): 9.3
Ratio [3]: 12

CCC(=O)O[C@H]1C(=O)[C@@]2(C)[C@H]([C@H](OC(=O)c3ccccc3)[C@]3(O)C[C@H](OC(=O)[C@H](O)[C@H](CC(C)C)NC(=O)OC4CCCCC4)C(C)=C1C3(C)C)[C@]1(OC(C)=O)CO[C@@H]1C[C@@H]2O
IC50 [1]: 4.8 nM
Ratio (MCF7 [2]): 10
Ratio [3]: 3.8

CCC(=O)O[C@H]1C(=O)[C@@]2(C)[C@H]([C@H](OC(=O)c3cccc(F)c3)[C@]3(O)C[C@H](OC(=O)[C@H](O)[C@@H](NC(=O)OC(C)(C)C)C(F)F)C(C)=C1C3(C)C)[C@]1(OC(C)=O)CO[C@@H]1C[C@@H]2O
IC50 (NCI-H460): 0.41 nM
IC50 [4]: 4.63 nM
IC50 (MCF7 [5]): 7.24 nM
IC50 [1]: 0.88 nM
Ratio (MCF7 [6]): 14
Ratio [3]: 3.5
IC50 (MCF7 [7]): 0.53 nM
IC50 (HT-29): 0.86 nM

CCC(=O)O[C@H]1C(=O)[C@@]2(C)[C@H]([C@H](OC(=O)c3ccccc3)[C@]3(O)C[C@H](OC(=O)[C@H](O)[C@H](CC(C)C)NC(=O)OC(C)(C)C)C(C)=C1C3(C)C)[C@]1(OC(C)=O)CO[C@@H]1C[C@@H]2O
Ratio (MCF7 [2]): 15

CC(=O)O[C@H]1C(=O)[C@@]2(C)[C@H]([C@H](OC(=O)c3cccc(Cl)c3)[C@]3(O)C[C@H](OC(=O)[C@H](O)[C@@H](NC(=O)OC(C)(C)C)C(F)(F)F)C(C)=C1C3(C)C)[C@]1(OC(C)=O)CO[C@@H]1C[C@@H]2O
IC50 (NCI-H460): 0.5 nM
IC50 [4]: 4.96 nM
IC50 (MCF7 [5]): 5.04 nM
IC50 [1]: 0.22 nM
Ratio (MCF7 [6]): 13
Ratio [3]: 23
IC50 (MCF7 [7]): 0.4 nM
IC50 (HT-29): 0.85 nM

COC(=O)O[C@H]1C(=O)[C@@]2(C)[C@H]([C@H](OC(=O)c3cccc(N=[N+]=[N-])c3)[C@]3(O)C[C@H](OC(=O)[C@H](O)[C@@H](NC(=O)OC(C)(C)C)C(F)F)C(C)=C1C3(C)C)[C@]1(OC(C)=O)CO[C@@H]1C[C@@H]2O
IC50 (NCI-H460): 0.23 nM
IC50 [4]: 2.06 nM
IC50 (MCF7 [5]): 2.56 nM
IC50 [1]: 0.26 nM
Ratio (MCF7 [6]): 1.5
Ratio [3]: 7.9
IC50 (MCF7 [7]): 1.69 nM
IC50 (HT-29): 0.36 nM

COc1cccc(C(=O)O[C@H]2[C@@H]3[C@]4(OC(C)=O)CO[C@@H]4C[C@H](O)[C@@]3(C)C(=O)[C@H](OC(=O)N(C)C)C3=C(C)[C@@H](OC(=O)[C@H](O)[C@@H](NC(=O)OC(C)(C)C)C(F)F)C[C@]2(O)C3(C)C)c1
IC50 (NCI-H460): 0.4 nM
IC50 [4]: 7.06 nM
IC50 (MCF7 [5]): 4.51 nM
IC50 [1]: 0.69 nM
Ratio (MCF7 [6]): 10
Ratio [3]: 10
IC50 (MCF7 [7]): 0.45 nM
IC50 (HT-29): 0.43 nM

COC(=O)O[C@H]1C(=O)[C@@]2(C)[C@H]([C@H](OC(=O)c3cccc(Cl)c3)[C@]3(O)C[C@H](OC(=O)[C@H](O)[C@@H](NC(=O)OC(C)(C)C)C(F)(F)F)C(C)=C1C3(C)C)[C@]1(OC(C)=O)CO[C@@H]1C[C@@H]2O
IC50 (NCI-H460): 0.43 nM
IC50 [4]: 5.08 nM
IC50 (MCF7 [5]): 4.72 nM
IC50 [1]: 0.29 nM
Ratio (MCF7 [6]): 7.3
Ratio [3]: 18
IC50 (MCF7 [7]): 0.65 nM
IC50 (HT-29): 0.68 nM

CCC(=O)O[C@H]1C(=O)[C@@]2(C)[C@H]([C@H](OC(=O)c3ccccc3)[C@]3(O)C[C@H](OC(=O)[C@H](O)[C@H](C=C(C)C)NC(=O)OC(C)(C)C)C(C)=C1C3(C)C)[C@]1(OC(C)=O)CO[C@@H]1C[C@@H]2O
Ratio (MCF7 [2]): 22

CCC(=O)O[C@H]1C(=O)[C@@]2(C)[C@H]([C@H](OC(=O)c3cccc(OC)c3)[C@]3(O)C[C@H](OC(=O)[C@H](O)[C@@H](NC(=O)OC(C)(C)C)C(F)(F)F)C(C)=C1C3(C)C)[C@]1(OC(C)=O)CO[C@@H]1C[C@@H]2O
IC50 (NCI-H460): 0.41 nM
IC50 [4]: 4.24 nM
IC50 (MCF7 [5]): 2.16 nM
IC50 [1]: 0.45 nM
Ratio (MCF7 [6]): 11
Ratio [3]: 9
IC50 (MCF7 [7]): 0.19 nM
IC50 (HT-29): 0.54 nM

COC(=O)O[C@H]1C(=O)[C@@]2(C)[C@H]([C@H](OC(=O)c3cccc(OC)c3)[C@]3(O)C[C@H](OC(=O)[C@H](O)[C@@H](NC(=O)OC(C)(C)C)C(F)(F)F)C(C)=C1C3(C)C)[C@]1(OC(C)=O)CO[C@@H]1C[C@@H]2O
IC50 (NCI-H460): 0.38 nM
IC50 [4]: 3.99 nM
IC50 (MCF7 [5]): 2.88 nM
IC50 [1]: 0.27 nM
Ratio (MCF7 [6]): 17
Ratio [3]: 15
IC50 (MCF7 [7]): 0.17 nM
IC50 (HT-29): 0.53 nM

CCC(=O)O[C@H]1C(=O)[C@@]2(C)[C@H]([C@H](OC(=O)c3cccc(Cl)c3)[C@]3(O)C[C@H](OC(=O)[C@H](O)[C@@H](NC(=O)OC(C)(C)C)C(F)F)C(C)=C1C3(C)C)[C@]1(OC(C)=O)CO[C@@H]1C[C@@H]2O
IC50 (NCI-H460): 0.3 nM
IC50 [4]: 4.71 nM
IC50 (MCF7 [5]): 5.2 nM
IC50 [1]: 0.52 nM
Ratio (MCF7 [6]): 12
Ratio [3]: 9.1
IC50 (MCF7 [7]): 0.44 nM
IC50 (HT-29): 0.43 nM

COC(=O)O[C@H]1C(=O)[C@@]2(C)[C@H]([C@H](OC(=O)c3cccc(F)c3)[C@]3(O)C[C@H](OC(=O)[C@H](O)[C@@H](NC(=O)OC(C)(C)C)C(F)F)C(C)=C1C3(C)C)[C@]1(OC(C)=O)CO[C@@H]1C[C@@H]2O
IC50 (NCI-H460): 0.3 nM
IC50 [4]: 12.6 nM
IC50 (MCF7 [5]): 11.4 nM
IC50 [1]: 0.86 nM
Ratio (MCF7 [6]): 19
Ratio [3]: 15
IC50 (MCF7 [7]): 0.59 nM
IC50 (HT-29): 0.43 nM

CC(=O)O[C@H]1C(=O)[C@@]2(C)[C@H]([C@H](OC(=O)c3cccc(F)c3)[C@]3(O)C[C@H](OC(=O)[C@H](O)[C@@H](NC(=O)OC(C)(C)C)C(F)F)C(C)=C1C3(C)C)[C@]1(OC(C)=O)CO[C@@H]1C[C@@H]2O
IC50 (NCI-H460): 0.2 nM
IC50 [4]: 10 nM
IC50 (MCF7 [5]): 5.33 nM
IC50 [1]: 0.52 nM
Ratio (MCF7 [6]): 13
Ratio [3]: 19
IC50 (MCF7 [7]): 0.44 nM
IC50 (HT-29): 0.35 nM
